# Measured values published in article PMC9820430, “New Affordable Methods for Large-Scale Isolation of Major Olive Secoiridoids and Systematic Comparative Study of Their Antiproliferative/Cytotoxic Effect on Multiple Cancer Cell Lines of Different Cancer Origins” (International Journal of Molecular Sciences, 2022).
# How the values were obtained:
# A2058 = experiment: EdU incorporation cell proliferation assay, 24 h; format: cell-based, human; conditions: for % EdU +ve ± SE (S-phase cells): 24 h treatment at EC50 concentration
# Method: For this purpose, ten cancer cell lines (i.e., MDA-MB 231, SK-BR-3, MCF-7, A2058, SK-MEL-28, AGS, HepG-2, PANC-1, H1299 and Hela) originating from breast, melanoma, stomach, hepatic, pancreatic, lung and cervical tumors were analyzed in parallel with control samples (i.e., the same cells treated only with 0.2% (v/v) DMSO). […] Subsequently, the treated cells were allowed to incorporate 5-ethynyl-2′-deoxyuridine (EdU) into replicating DNA according to the protocol described in detail in the Experimental Section. EdU, a thymidine analog, can be incorporated into DNA in vivo and detected later by using copper-catalyzed azide–alkyne cycloaddition (click reaction) without prior DNA denaturation. The pool of cells in the S phase can be then easily detected by fluorescence (FL) microscopy or by flow cytometry by analyzing the incorporation of EdU in replicating DNA of single cells. In this study, after EdU incorporation, the nuclei of the entire cell population were stained with Hoechst and imaged by confocal microscopy (Experimental Section). EdU-positive nuclei, marked by green FL, as well as the total number of nuclei, marked by blue FL, were enumerated by applying the Icy image analysis algorithm on the digital images acquired by confocal microscopy.
# Human cancer cells were plated onto sterile glass coverslips (10-mm diameter, 5161063, ThermoFisher Scientific, Waltham, MA, USA) in 24-well tissue culture plates, at a density 5 times the density of cells seeded in 96-well plate and at a final medium volume of 500 μL. In order to obtain homogeneous plating, 250 μL of the medium was added directly to the wells already containing coverslips. Using a tip perpendicularly, coverslips were pressed in order to ensure their attachment to the bottom of the well. The cells were then seeded by adding 250 μL of single-cell suspension drop by drop following a cross path. Immediately after seeding, the plate was shaken back and forth at least ten times to achieve homogeneous plating. The cells were allowed to adhere overnight (~16 h) at 37 °C and 5% (v/v) CO2. The next day, a volume of 500 μL fresh medium was added to each well and the treatment with OOPs was initiated by adding directly to the wells 2 μL of OOPs from the 500× stock in DMSO and immediately mixed afterward by pipetting. […] Control cells were prepared under the same experimental conditions using DMSO instead of the OOPs’ solutions in DMSO at the same final concentration (0.2% (v/v) DMSO). […] Each condition was performed in duplicate. After treatment with the OOPs, live proliferating mammalian cells were labeled with 5-ethynyl-2’-deoxyuridine (EdU), a nucleoside analog of thymidine, using the Cell proliferation kit III (EdU-FM, PK-CA724-488FM, Promokine, Heidelberg, Germany). More specifically, a 20 μM EdU solution from a 10 mM stock in DMSO was prepared in a fresh culture medium. Culture supernatant was removed from treated cells to leave only 250 μL. An equal volume of 20 μM EdU solution was added and mixed with the medium to obtain a 10 μΜ EdU final concentration. The treated cells were incubated for the desired time of pulse length (2–4 h) under conditions optimal for each cell type depending on each cell line’s doubling time. Following incubation, cells were washed twice with PBS, then fixed with 4% (w/v) paraformaldehyde in PBS for 15 min at room temperature (RT), and subsequently washed twice with 3% (w/v) BSA for 5 min each time. Cells were permeabilized by incubation (20 min, RT, in the dark) with 0.5% (v/v) Triton-X 100 in PBS. Following permeabilization the cells were washed twice with 3% (w/v) BSA in PBS and incubated for 30 min with the reaction cocktail, according to the instructions of the Cell proliferation kit III (EdU-488; FM). After staining for replicating DNA, the cells were washed three times with 3% (w/v) BSA in PBS, and were then incubated (10 min, at RT) with Hoechst 33342 in PBS (1:10.000) to visualize all the nuclei. […]
# MDA-MB 231 = experiment: ATP assay under 1% (v/v) O2 versus 20% (v/v) O2, 72 h; format: cell-based, human; conditions: 1% (v/v) O2 vs 20% (v/v) O2
# Method: The effects of drugs on cancer cell lines are usually tested under atmospheric conditions (20% (v/v) O2). However, the O2 content in tissues (normoxia) and solid tumors (hypoxia) is ≤ 5% (v/v). In some tumors (i.e., pancreatic tumors) the % O2 is even ≤ 1% (v/v). This affects cell metabolism and signaling pathways which depend on the hypoxia-induced Factor 1A (HIF1A) and it could affect the activity of certain drugs. […] The effects of these three OOPs were tested on the MDA-MB 231, SK-BR-3 and MCF-7 breast cancer and on the AGS stomach cancer cell lines.
# Figure 6 Effect of O2 concentration on the antiproliferative/cytotoxic effect of OOPs. […] Cell viability was determined on (A) AGS, (B) MDA-MB 231, (C) MCF-7 and (D) SK-BR-3 cell lines using ATP-based luminescence assay. The results presented are from two independent experiments performed in triplicate. Bar graphs represent the mean cell count ± SE in each treatment group normalized to the control group (i.e., cells treated only with 0.2% (v/v) DMSO). * p < 0.05; ** p ≤ 0.01; *** p ≤ 0.001 (t-test) comparing the two different conditions.
# A375 cells = system: A375 cells; set-up: method as in PMID 35630786; conditions: 72 h treatment; cited from earlier work
Compound,"% Inhibition ± SE of cell proliferation (A2058; 24 h at EC50, normalized with the control) [%]",% EdU +ve ± SE (S-phase cells) (A2058) [%],bioactivity under hypoxia versus atmospheric O2 (MDA-MB 231),EC50 (A375 cells) [µM]
"COC(=O)C1=COC(C)[C@@H](C=O)[C@@H]1CC(=O)OCCc1ccc(O)c(O)c1 (mixture of isomers) [3a,b, oleuropein aglycone]",15.0 ± 10.3,23.7 ± 5.8,more resistant,
"C/C=C(/C=O)[C@@H](CC=O)CC(=O)OCCc1ccc(O)cc1 [compound 1, oleocanthal]",,25.5 ± 5.3,,67.5 ± 1.9
"C/C=C(/C=O)[C@@H](CC=O)CC(=O)OCCc1ccc(O)c(O)c1 [compound 2, oleacein]",,,,113 ± 4.9
"ligstroside aglycone [4a,b]",,,more resistant,
